Reference: article PMC6934184, “Selective DNA-PKcs inhibition extends the therapeutic index of localized radiotherapy and chemotherapy” (The Journal of Clinical Investigation, 2019)

Target: T1, MAPK12 (p38 gamma) (Homo sapiens, UniProt P53778)
T1 construct: purchased Thermo Fisher Scientific (Life Technologies) SelectScreen
Assay: SelectScreen Z'LYTE
Assay type: biochemical
In short: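 SelectScreen broad panel; activity (Z'LYTE, Adapta) plus binding formats. ATP: Km app for CSF1R Z'LYTE; 10 for CAMK1 Adapta. Readout = % per kinase.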

T1 sequence (P53778 whole entry): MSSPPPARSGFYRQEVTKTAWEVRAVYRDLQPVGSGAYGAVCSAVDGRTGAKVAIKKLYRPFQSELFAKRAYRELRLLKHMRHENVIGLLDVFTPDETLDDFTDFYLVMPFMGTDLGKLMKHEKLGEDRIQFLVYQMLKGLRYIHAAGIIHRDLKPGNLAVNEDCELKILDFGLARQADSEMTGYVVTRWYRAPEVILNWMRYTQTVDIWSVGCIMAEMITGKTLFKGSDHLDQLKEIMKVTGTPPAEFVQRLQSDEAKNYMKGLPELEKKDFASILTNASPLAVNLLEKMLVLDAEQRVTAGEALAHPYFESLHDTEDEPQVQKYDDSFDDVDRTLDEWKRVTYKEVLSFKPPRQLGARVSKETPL

Compound `CN(C(=O)CN1CCOCC1)c1ccc2sc3c(-c4cccc5c(=O)cc(N6CC7CCC(C6)O7)oc45)cccc3c2c1` [NU5455] has an inhibition at 1 µM of -0.8%.
